Experiments:
[1] = Pre-packaging refrigeration stability of ground MC powder (5° C.±2° C., up to 12% RH), LOD and U-HPLC of phytocannabinoids; format: physicochemical; conditions: for change in phytocannabinoid concentration during storage: up to 3 months, one-way ANOVA
Method: In the described experiment, Bedrocan strain MC powder was stored at 5° C.±2° C. with up to 12% relative humidity (RH) in a polypropylene container, sealed in an aluminum foil pouch (Oliver-Tolas Healthcare Packaging B.V.; Venray, Netherlands). In order to assess its stability during the handling and hold time, samples were taken from three separate growing batches and assayed at baseline and at 1, 2 and 3 months post grinding. Each sample was assayed for loss on drying (LOD), and of the concentrations of the major phytocannabinoids (CBDA, CBD, CBGA, CBN, THCA and THC).
(§1) Analysis of cannabis inflorescences for the main phytocannabinoids (CBDA, CBD, CBGA, CBN, THCA and THC) was performed as follows: 100 mg of ground Cannabis inflorescences were weighed in duplicate from one container and extracted with 25 mL methanol then sonicated for 40 min and centrifuged at 3000 rpm for 5 min. All samples were filtered through a 0.22 μm PP filter vail prior to analysis. The dilution and quantitation were preformed corresponding to calibration curves. The main six phytocannabinoids were analyzed by ultra-high-performance liquid chromatography (UHPLC: […]) system with a refrigerated auto-sampler, thermostatic column oven and ultraviolet detector, Waters ACQUITY UPLC H-Class. Chromatographic separation was achieved using UPLC column Waters Acquity C18, 1.7 μm particles, 2.1×150 mm maintained at 30° C. The phytocannabinoids were separated using a gradient elution with mobile phases of 0.1% (v/v) formic acid in double-distilled water (phase A) and acetonitrile (phase B), respectively. A constant flow rate of 0.4 mL/min was employed throughout. The gradient profile varied from 70% to 100% B in 10.5 min, held for 0.5 min in these conditions and then returned to the initial conditions.
(§2) For THC and CBD, the concentrations of the acid and its neutral counterpart were summed and reported as the total content. For example, the concentration of total THC […] was calculated as: Total THC=THCA*0.877+THC, with 0.877 being the molar ratio between the two compounds that corrects for a change in the mass of THCA as a result of the loss of CO2 (decarboxylation). This is shown in FIG. 7A: “U-HPLC analysis of the Bedrocan cultivar”.
(§3) R software (V.1.1.463) with tidyverse (17) package was used to analyze changes in outcome measures by one way ANOVA test, using Fisher's exact test analysis. All analyses were followed by a Tukey post-hoc test for multiple comparison. Data are presented as Mean±95% confidence interval (CI). Differences were considered significant at the p<0.05 level.

[2] = Long-term stability of ground cannabis packaged in Syqe cartridges at 25° C.±2° C. (RH 60%±5%), LOD and U-HPLC; format: physicochemical; conditions: for change in phytocannabinoid amount during storage: RH 60%, up to 24 months, one-way ANOVA
Method: (§4) In some embodiments, once cartridges are produced, they are stored, distributed and used at RT. In order to assess the shelf life of such cartridges, a long-term stability study was performed, during which cartridges were stored at 25° C.±2° C. (RH 60%±5%) in a calibrated and certified stability chamber (Memmert Constant climate chamber HPP260). 9, 6, 9, 8, 7, 4 and 4 separate growing batches were tested at baseline and after 3, 6, 9, 12, 18 and 24 months, respectively. At each time point samples of the ground inflorescence within the cartridges were analyzed for LOD and for the amount (mg) of each of the major phytocannabinoids (CBDA, CBD, CBGA, CBN, THCA and THC). Of the same batches, THC aerosolized by the Syqe inhaler was analyzed at baseline and at 6, 9, 18 and 24 months.
as §1, §2, §3

[3] = Stability of Syqe cartridges stored at 30° C.±2° C. (65% RH±5% RH), LOD and U-HPLC; format: physicochemical; conditions: for change in phytocannabinoid amount during storage: 65% RH, up to 6 months, one-way ANOVA; for amounts detected at all time points: BL to 6 months
Method: Additionally, to assess the effects of a warmer temperature on MC, Syqe cartridges were stored post-production at an elevated temperature and humidity of 30° C.±2° C. (65% RH±5% RH). Three different growing batches were analyzed at baseline and at 1, 2, 4 and 6 months of storage.
as §1, §2, §3

[4] = Heating of ground cannabis samples to target temperatures 60-150° C.; vaporized THC measured in aerosol, residual terpenes by GC/MS; format: physicochemical; conditions: 135 mg ground cannabis, THC measured in the aerosol, FIG. 6A
Method: The vaporization plots in FIGS. 6A-B show results of an experiment performed by the inventors in which samples of 135 mg of ground cannabis were heated to several target temperatures, including 60° C., 70° C., 80° C., 90° C., 100° C., 110° C., 120° C., 130° C., 140° C. and 150° C. At each of the target temperatures, vaporized THC was measured in the aerosol. At each of the target temperatures, the residual mass of ground cannabis was analyzed using Gas Chromatography-Mass Spectrometry (GC/MS) to determine existence of terpenes, such as: Linalool, Isopulegol, Geraniol, Caryophyllene, […] Humulene<alpha-> and Nerolidol. The total terpenes residue (as remaining in the ground cannabis) is indicated by the dashed line in FIG. 6A. Based on the residual mass of terpenes, the released (vaporized) amount terpenes was calculated, by subtracting the measured residual mass from a respective reference mass.
As can be observed from FIG. 6A, THC (indicated by the continuous line) release started at a target temperature of 130 degrees C., and increased with the rising of the target temperature (up to 150 degrees C.).

[5] = THC dose aerosolized by the Syqe inhaler from cartridges stored at 25° C. up to 24 months; format: physicochemical; conditions: for aerosolized THC dose: inhaler set to 500 μg THC, mean±95% CI
Method: as §4
In some embodiments, the Syqe inhaler is preprogrammed with several distinct heating protocols. In some embodiments, each heating protocol is tailored to heat a VC and deliver an aerosol containing 250, 500, 750 or 1,000 μg or intermediate, larger or smaller amounts of THC to the user. In some embodiments, THC serves as an indicator for dose selection and is optionally delivered with an entourage of phytocannabinoids, terpenes and other molecules of the whole inflorescence that vaporize into the aerosol with it. […] Other dosage amounts are also to be contemplated, any may also serve as optimal dosing, depending on the need. For example, dosage amounts of between 50-5000 μg Δ^9-THC, 200-1000 μg Δ^9-THC, 50-500 μg Δ^9-THC, 1000-5000 μg Δ^9-THC, or intermediate, higher or lower ranges.
In the framework of the two-year stability study, samples were also taken for aerosolization using the Syqe Inhaler. The Syqe Inhaler was set to aerosolize 500 μg THC doses, in accordance with some embodiments. Data is provided only for time points in which three or more batches were tested (namely, BL and 6, 9, 18 and 24 months). […] BL, 6-, 9-, 18-, and 24-months' values were 484.76±31.28n, 486.30±50.56n, 563±22.06 μg, 597.94±16.75 μg and 554.67±36.00 μg, respectively. All aerosolized THC doses were well within the 500 μg±25% range (i.e., 375-625 μg) that apply to pharmaceutical grade inhalers (16).

[6] = after four years, room temperature (22 C), light or darkness (conditions A and B); cited from earlier work

For `CCCCCc1cc2c(c(O)c1C(=O)O)[C@@H]1C=C(C)CC[C@H]1C(C)(C)O2` (relative stereo) [THCA, (−)-Δ^9-trans-tetrahydrocannabinolic acid], the “change in phytocannabinoid concentration during storage” value [1] was “no significant change”, the “change in phytocannabinoid amount during storage” value ([2]; 25° C.) was “decreased significantly” and the “change in phytocannabinoid amount during storage” value [3] was “decreased significantly”.

In the case of `C=C(C)[C@@H]1CCC(C)=C[C@H]1c1c(O)cc(CCCCC)cc1O` [CBD, Cannabidiol, reference compound], the “concentration detected at all time points” value ([1]; BL to 3 months) is reported as “mostly undetected”, the “concentration detected at all time points” value ([2]; 25° C., BL to 24 months) is reported as “mostly non-detected” and the “amounts detected at all time points” value [3] is reported as “mostly undetected”.

With `C=C(C)[C@@H]1CCC(C)=C[C@H]1c1c(O)cc(CCCCC)c(C(=O)O)c1O` [CBDA, Cannabidiolic acid] the “change in phytocannabinoid concentration during storage” value [1] was “no significant change”, the “change in phytocannabinoid amount during storage” value ([2]; 25° C.) was “no significant change” and the pre-storage amount ([2]; before storage) was at most 0.006 mg/sample. For the same molecule, the “amounts detected at all time points” value [3] was “mostly undetected”.

In the case of `CCCCCc1cc(O)c(C/C=C(\C)CCC=C(C)C)c(O)c1C(=O)O` [CBGA, Cannabigerolic acid], the “change in phytocannabinoid concentration during storage” value [1] is reported as “no significant change”, the “change in phytocannabinoid amount during storage” value ([2]; 25° C.) is reported as “decreased significantly” and the “change in phytocannabinoid amount during storage” value [3] is reported as “decreased significantly”.

In the case of `CCCCCc1cc(O)c2c(c1)OC(C)(C)c1ccc(C)cc1-2` [CBN, Cannabinol], the “change in phytocannabinoid concentration during storage” value [1] is reported as “no significant change”, the “change in phytocannabinoid amount during storage” value ([2]; 25° C.) is reported as “increased significantly” and the “change in phytocannabinoid amount during storage” value [3] is reported as “increased significantly”.

In the case of `CCCCCc1cc(O)c2c(c1)OC(C)(C)[C@@H]1CCC(C)=C[C@@H]21` [THC, (−)-Δ^9-trans-tetrahydrocannabinol], the “target temperature at which THC release started” value [4] is reported as 130 degrees C, the “change in phytocannabinoid concentration during storage” value [1] is reported as “no significant change” and the “change in phytocannabinoid amount during storage” value ([2]; 25° C.) is reported as “increased”. For the same molecule, the “change in phytocannabinoid amount during storage” value ([2]; 25° C., listed as Δ^9-THC) was “increased significantly”, the “aerosolized THC dose” value ([5]; 6 months at 25° C.) was 486.30±50.56 n and the “aerosolized THC dose” value ([5]; 9 months at 25° C.) was 563 ± 22.06 µg. The “aerosolized THC dose” value ([5]; 18 months at 25° C.) was 597.94 ± 16.75 µg, the “aerosolized THC dose” value ([5]; 24 months at 25° C.) was 554.67 ± 36.00 µg and the “range within which all aerosolized THC doses remained” value ([5]; BL to 24 months at 25° C., 500 μg±25%) was 375 to 625 µg. For the same molecule, the “aerosolized THC dose” value ([5]; BL) was 484.76±31.28 n, the “change in phytocannabinoid amount during storage” value [3] was “increased significantly” and the THC degraded [6] was about 100%.

Reference: patent US20240108577A1, “CONTROLLED RELEASE OF […] A SOURCE MATERIAL” (Syqe Medical Ltd., priority 2022, published 2024)
